In brackets after ≈: the same amount, converted by molar mass.
What was measured:
[1] = In vitro inhibitory concentration required against Mur B enzyme was determined; design: species or system Staphylococcus aureus
Staphylococcus aureus = test: Antibacterial activity against Staphylococcus aureus A9537; type: functional

SMILES	IC50 [1] [µM]	MIC (Staphylococcus aureus) [µg/mL]
CCCC[C@@H](C(=O)O)n1c(-c2cccc(Oc3ccc(C(C)(C)C)cc3)c2)cn(C)c1=O	> 115	–
CCCC[C@@H](C(=O)O)n1c(-c2cccc(Oc3ccc(C(C)(C)C)cc3)c2)cnc1O	> 118	–
C=CCn1cc(-c2cccc(Oc3ccc(C(C)(C)C)cc3)c2)n([C@@H](CCCC)C(=O)O)c1=O	40	4 (≈ 8.65 µM)
CCCC[C@@H](C(=O)O)n1c(-c2cccc(Oc3ccc(C(C)(C)C)cc3)c2)cn(CC(=O)NCCc2ccccc2Cl)c1=O	25	4 (≈ 6.47 µM)
CCCC[C@@H](C(=O)OC)n1c(-c2cccc(Oc3ccc(C(C)(C)C)cc3)c2)cn(CC(=O)O)c1=O	> 101	–

These reach a lower IC50 [1]. Values come first.

IC50 [1] [µM]	MIC (Staphylococcus aureus) [µg/mL]	SMILES
12	–	CCCC[C@@H](C(=O)O)N1C(=O)C(CC(=O)NCCc2ccccc2Cl)SC1c1cccc(Oc2ccc(C(C)(C)C)cc2)c1 (some centres not stated)
16	2 (≈ 3.9 µM)	CCCC[C@@H](C(=O)O)n1c(-c2cccc(Oc3ccc(C(C)(C)C)cc3)c2)cn(Cc2ccccc2)c1=O
15	4 (≈ 6.26 µM)	CCCC[C@@H](C(=O)O)n1c(-c2cccc(Oc3ccc(C(C)(C)C)cc3)c2)cn(CC(=O)NCc2ccc(Cl)c(Cl)c2)c1=O
